Source: US10041042B2, “Methods for production and use of substance-loaded erythrocytes (S-IEs) for observation and treatment of microvascular hemodynamics” (Novadaq Technologies ULC, priority 2008, dated 2018)

Tests used:
Format in all cases: physicochemical
[1] = Near-infrared fluorescence micrographs (40×) of ICG-loaded vs ICG-stained erythrocytes: cell brightness; details: FIG. 1C, plasma exposed 20 min to stained erythrocytes
Protocol: FIGS. 1A-1D are near-infrared fluorescence micrographs at 40× magnification of erythrocytes, comparing the brightness of cells “stained” with ICG (A—stained in 1 mM ICG solution for 30 min. and B—stained in 2 mM ICG solution for 60 min. to cells into which ICG has been loaded through pores in their membranes; C—stained plasma resulting from exposure for 20 min. to the stained erythrocytes from A; D—dialysed in 1 mM ICG solution for 30 min.);
(1) Although many fluorescent dyes, such as ICG dye, do bind to the erythrocyte outer cell membrane, binding is weak and non-covalent, and regardless of the dye concentration and conjugation time, the maximum fluorescence brightness that can be achieved is considerably less than optimum (see FIG. 1). […] (2) Exposure to fluorescence excitation energy for diagnostic purposes must not exceed the safe maximum permissible exposure level for the sensory retina. Since ICG dye is a fairly weak emitter of fluorescence, care must be taken to ensure that the amount of ICG present post-loading is optimal, resulting in maximum fluorescence intensity possible at a given safe excitation energy level. […] Moreover, since ICG is subject to concentration fluorescence quenching—even when inside erythrocytes—the amount of loaded dye must be controlled: too much or too little will not produce the maximum fluorescence. […]

[2] = Infrared fluorescence image of thick and thin layers of ICG with and without Ag colloid; details: thick (1 cm) layers, 0.250 mg/mL ICG in HAS with or without 4.684 mg/mL Ag colloid, 805 nm
Protocol: FIG. 7 is an infrared fluorescence image comparing the fluorescence enhancement effect of silver colloid in 0.05 mg/mL ICG solutions; samples in the left-hand side contain no colloid, while those in the right-hand side contain colloid; samples at the top are in 1-cm thick tubes, while those at the bottom are 100 microns thick;
FIG. 8 is an infrared fluorescence image of the samples of FIG. 7 showing reflection of the 805-nm wavelength light used to stimulate fluorescence; no barrier filter was placed in front of the CCD camera in this case;
The disparity between fluorescence enhancement reported in the experiments made using glass surfaces on which the dye/colloid conjugates were bound with amino groups (30-fold) and those observed in the in vivo angiograms (2- to 3-fold) apparently was due to the fact that the colloid fluorescence-enhancement effect is manifest in very thin layers of the dye/suspension and suppressed in thick ones. In this figure, the thick samples are at the top, and the thin ones at the bottom; 0.250 mg/mL ICG in HAS is on the left, and 0.250 mg/mL ICG in HAS with 4.684 mg/mL Ag colloid on the right. The array of samples was uniformly illuminated with 805-nm wavelength light, and the ICG fluorescence image was captured. […]

[3] = Optimum ICG concentration for fluorescence (concentration quenching)
Source text: (1) Although many fluorescent dyes, such as ICG dye, do bind to the erythrocyte outer cell membrane, binding is weak and non-covalent, and regardless of the dye concentration and conjugation time, the maximum fluorescence brightness that can be achieved is considerably less than optimum (see FIG. 1). […] (2) Exposure to fluorescence excitation energy for diagnostic purposes must not exceed the safe maximum permissible exposure level for the sensory retina. Since ICG dye is a fairly weak emitter of fluorescence, care must be taken to ensure that the amount of ICG present post-loading is optimal, resulting in maximum fluorescence intensity possible at a given safe excitation energy level. […] Moreover, since ICG is subject to concentration fluorescence quenching—even when inside erythrocytes—the amount of loaded dye must be controlled: too much or too little will not produce the maximum fluorescence. […] Achieving optimal dye concentration is accomplished by controlling the amount of dye in the solution during dialysis once the pores in the cell membranes open; experimentation has determined the optimum amount to be approximately 1.0 μmol/mL dialysed cell-solution (see FIG. 2). […] This also has the advantage of preventing plasma dye-staining and the associated reduction of contrast between cell fluorescence and background brightness once the cells are re-injected. […]

fluorescence brightness, thick samples [2]: significantly brighter
optimum concentration of dye molecules in the loaded cells; above that level fluorescence quenching occurs ([3]; ICG inserted into S-IEs): about 0.03 mg/mL
SMILES: CC1(C)C(/C=C/C=C/C=C/C=C2\N(CCCCS(=O)(=O)O)c3ccc4ccccc4c3C2(C)C)=[N+](CCCCS(=O)(=O)[O-])c2ccc3ccccc3c21 [ICG, indocyanine green]
affinity of ICG dye molecules: plasma proteins vs erythrocyte outer membrane [1]: greater for plasma proteins than for the erythrocyte outer membrane
optimum amount of dye in the solution during dialysis ([3]; for maximum fluorescence of loaded erythrocytes): approximately 1.0 μmol/mL dialysed cell-solution
